Measurements: ChEMBL document CHEMBL1201862, “PubChem BioAssay data set” (2004)
Activity calls are given as the source filed them.

Experiments:
P388 = test: cells; assay type: functional; conditions: Mus musculus
SN12K1 = test: cells; assay type: functional; conditions: Homo sapiens
P388/ADR = test: cells; assay type: functional; conditions: Mus musculus
Protein RecA = target: T1, Protein RecA (Mycobacterium tuberculosis, UniProt P9WHJ3); test: Fluorescence Cell-Free Homogeneous Dose Retest to Identify Inhibitors of RecA-Intein Splicing Activity. [Related pubchem assays (depositor defined):AID2097, AID2223, AID489010, AID492950]; assay type: functional
T1 sequence (P9WHJ3 whole entry): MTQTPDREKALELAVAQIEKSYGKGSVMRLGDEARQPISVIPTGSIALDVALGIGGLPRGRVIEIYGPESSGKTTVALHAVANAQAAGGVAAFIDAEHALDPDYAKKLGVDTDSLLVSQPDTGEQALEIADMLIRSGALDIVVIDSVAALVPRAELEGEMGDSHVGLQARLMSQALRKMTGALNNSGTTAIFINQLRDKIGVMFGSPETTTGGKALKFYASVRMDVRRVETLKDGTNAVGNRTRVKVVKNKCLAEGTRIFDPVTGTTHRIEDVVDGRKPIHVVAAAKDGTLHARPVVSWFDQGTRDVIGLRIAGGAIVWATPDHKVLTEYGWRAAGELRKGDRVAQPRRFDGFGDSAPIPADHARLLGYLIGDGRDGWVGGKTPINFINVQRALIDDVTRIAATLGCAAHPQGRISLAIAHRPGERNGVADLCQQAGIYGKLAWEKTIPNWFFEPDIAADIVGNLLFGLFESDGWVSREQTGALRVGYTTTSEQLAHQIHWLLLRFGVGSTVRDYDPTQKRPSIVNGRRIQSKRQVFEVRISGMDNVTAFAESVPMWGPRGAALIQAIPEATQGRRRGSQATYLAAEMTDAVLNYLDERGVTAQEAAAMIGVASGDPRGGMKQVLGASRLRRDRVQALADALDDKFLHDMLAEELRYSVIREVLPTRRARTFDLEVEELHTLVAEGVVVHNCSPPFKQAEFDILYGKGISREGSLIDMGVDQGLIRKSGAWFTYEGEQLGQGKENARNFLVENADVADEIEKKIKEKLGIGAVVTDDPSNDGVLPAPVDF

Vero = test: viability of Vero cells under compound – cytotoxicity control for flavivirus capping enzyme inhibitors (AID 588742); assay type: functional; conditions: Chlorocebus sabaeus
[1] = target: T2, Replicative DNA helicase DnaB (Mycobacterium tuberculosis, UniProt P9WMR3); test: DnaB intein splicing inhibitors, dose response, biochemical, cell-free fluorescence (AID 449749); assay type: functional
T2 sequence (P9WMR3 whole entry): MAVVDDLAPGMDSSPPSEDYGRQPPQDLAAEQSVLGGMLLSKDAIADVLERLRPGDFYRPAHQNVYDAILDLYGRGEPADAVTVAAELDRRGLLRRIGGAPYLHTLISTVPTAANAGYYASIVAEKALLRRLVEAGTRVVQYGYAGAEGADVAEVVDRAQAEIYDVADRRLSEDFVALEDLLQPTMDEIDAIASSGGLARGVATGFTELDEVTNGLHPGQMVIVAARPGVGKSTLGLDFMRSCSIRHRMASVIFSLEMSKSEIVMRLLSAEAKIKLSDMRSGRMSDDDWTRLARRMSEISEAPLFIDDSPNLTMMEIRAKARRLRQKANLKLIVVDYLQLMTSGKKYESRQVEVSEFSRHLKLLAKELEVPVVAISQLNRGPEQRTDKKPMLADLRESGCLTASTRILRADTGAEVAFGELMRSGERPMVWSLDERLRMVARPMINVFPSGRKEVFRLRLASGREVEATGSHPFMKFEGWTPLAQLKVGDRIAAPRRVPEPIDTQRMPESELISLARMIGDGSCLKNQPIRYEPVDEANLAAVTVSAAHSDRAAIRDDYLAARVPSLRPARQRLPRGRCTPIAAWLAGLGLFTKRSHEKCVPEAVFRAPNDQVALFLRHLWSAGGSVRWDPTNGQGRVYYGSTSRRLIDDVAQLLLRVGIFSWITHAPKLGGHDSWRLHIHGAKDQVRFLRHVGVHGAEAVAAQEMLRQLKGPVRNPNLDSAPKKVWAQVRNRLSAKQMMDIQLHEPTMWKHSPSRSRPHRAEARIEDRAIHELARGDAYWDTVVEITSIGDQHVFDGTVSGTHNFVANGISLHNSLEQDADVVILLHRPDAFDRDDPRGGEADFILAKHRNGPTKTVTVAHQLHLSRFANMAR

Genome polyprotein = Genome polyprotein (dengue virus type 2, UniProt P29990); test: flavivirus cap methylation enzyme inhibition – biochemical, confirmation dose response, primary screen (AID 588689); assay type: functional
Chain of Genome polyprotein (P29990 2492-3391 limits assumed): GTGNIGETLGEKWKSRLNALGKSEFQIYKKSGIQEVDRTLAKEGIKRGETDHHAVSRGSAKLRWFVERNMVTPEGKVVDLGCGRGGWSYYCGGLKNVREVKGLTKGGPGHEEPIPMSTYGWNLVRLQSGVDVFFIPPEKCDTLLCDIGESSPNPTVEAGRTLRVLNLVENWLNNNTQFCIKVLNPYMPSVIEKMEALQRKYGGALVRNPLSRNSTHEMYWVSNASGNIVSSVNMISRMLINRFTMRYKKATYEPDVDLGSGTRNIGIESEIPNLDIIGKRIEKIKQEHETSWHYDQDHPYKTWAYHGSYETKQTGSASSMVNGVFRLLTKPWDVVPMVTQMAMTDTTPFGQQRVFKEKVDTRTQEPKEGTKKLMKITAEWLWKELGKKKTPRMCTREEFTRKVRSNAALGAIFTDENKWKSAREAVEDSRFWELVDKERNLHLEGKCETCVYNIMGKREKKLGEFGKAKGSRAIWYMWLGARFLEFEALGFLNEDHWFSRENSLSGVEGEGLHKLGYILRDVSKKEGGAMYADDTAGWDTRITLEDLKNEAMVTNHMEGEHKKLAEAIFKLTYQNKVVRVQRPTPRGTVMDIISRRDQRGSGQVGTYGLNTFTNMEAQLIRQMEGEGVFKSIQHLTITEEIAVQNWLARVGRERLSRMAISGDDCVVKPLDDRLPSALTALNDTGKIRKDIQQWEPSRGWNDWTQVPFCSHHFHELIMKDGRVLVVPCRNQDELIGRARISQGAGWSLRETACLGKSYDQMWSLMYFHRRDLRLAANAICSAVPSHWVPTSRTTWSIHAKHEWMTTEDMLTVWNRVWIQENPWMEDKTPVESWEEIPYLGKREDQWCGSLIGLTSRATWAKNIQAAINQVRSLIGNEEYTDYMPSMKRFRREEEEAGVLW

[2] = viability loss in HeLa cells – cytotoxicity control for MgcRacGAP inhibitor project, dose response (AID 624300); assay type: functional
[3] = target: T3, Rac GTPase-activating protein 1 (Homo sapiens, UniProt Q9H0H5); test: blockers of MgcRacGAP-driven Rac1 GTP hydrolysis – biochemical, ADP Hunter fluorescence, primary and confirmatory, confirmation (AID 624330); assay type: functional
T3 sequence (Q9H0H5 whole entry): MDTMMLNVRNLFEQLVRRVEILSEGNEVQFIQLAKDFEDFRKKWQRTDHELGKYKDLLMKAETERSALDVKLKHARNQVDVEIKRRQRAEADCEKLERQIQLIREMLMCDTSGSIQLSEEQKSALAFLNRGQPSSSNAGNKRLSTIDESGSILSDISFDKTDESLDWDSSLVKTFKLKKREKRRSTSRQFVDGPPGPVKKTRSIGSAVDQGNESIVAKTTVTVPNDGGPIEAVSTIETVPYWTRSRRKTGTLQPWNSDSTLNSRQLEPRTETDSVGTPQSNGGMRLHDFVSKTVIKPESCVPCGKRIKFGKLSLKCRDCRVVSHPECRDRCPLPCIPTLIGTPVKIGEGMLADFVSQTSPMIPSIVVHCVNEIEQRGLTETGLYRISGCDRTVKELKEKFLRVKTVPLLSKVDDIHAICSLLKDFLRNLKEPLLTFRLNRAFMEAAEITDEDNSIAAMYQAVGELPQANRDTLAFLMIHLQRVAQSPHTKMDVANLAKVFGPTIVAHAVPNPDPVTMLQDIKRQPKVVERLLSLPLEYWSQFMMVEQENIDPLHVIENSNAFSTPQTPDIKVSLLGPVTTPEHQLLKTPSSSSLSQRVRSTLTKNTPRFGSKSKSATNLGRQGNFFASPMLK

[4] = target: T4, Heat shock factor protein 1 (Mus musculus, UniProt P38532); test: enhancement of HSF1-driven luciferase signal – cell-based, NIH3T3, luminescence, dose retest, confirmation (AID 435004); assay type: functional;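 further: stress induced by proteasome inhibitor MG132 added 30 min after compound; luciferase reporter driven by HSF1 response element in NIH3T3 cells; actives raise luminescence as potentiators of the MG132 stress response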
T4 sequence (P38532 whole entry): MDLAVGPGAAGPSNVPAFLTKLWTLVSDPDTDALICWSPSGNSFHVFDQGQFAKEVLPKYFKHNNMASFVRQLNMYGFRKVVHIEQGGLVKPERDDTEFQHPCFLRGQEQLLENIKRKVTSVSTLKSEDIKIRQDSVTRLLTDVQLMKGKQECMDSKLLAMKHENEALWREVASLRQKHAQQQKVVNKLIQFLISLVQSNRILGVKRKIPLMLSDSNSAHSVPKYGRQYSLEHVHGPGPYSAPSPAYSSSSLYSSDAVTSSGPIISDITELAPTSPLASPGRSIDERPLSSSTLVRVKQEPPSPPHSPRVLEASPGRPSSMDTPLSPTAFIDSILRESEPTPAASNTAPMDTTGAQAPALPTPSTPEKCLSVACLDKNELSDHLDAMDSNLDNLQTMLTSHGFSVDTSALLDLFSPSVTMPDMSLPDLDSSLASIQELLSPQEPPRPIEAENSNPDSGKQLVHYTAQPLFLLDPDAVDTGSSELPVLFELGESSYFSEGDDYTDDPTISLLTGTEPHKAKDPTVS

[5] = NIH-3T3 fibroblast cytotoxicity, dose response, cytotoxicity control, cell-based, fluorescence, Alamar Blue, secondary assay (AID 2327); assay type: functional;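 further: NIH-3T3 mouse fibroblasts cultured with fluconazole at 8 µg/mL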
[6] = fluconazole-exposed Candida albicans growth modulators – fluorescence, retest, confirmation (AID 2467); assay type: functional, cell-based
[7] = target: T5, DNA repair protein RAD52 homolog (Homo sapiens, UniProt P43351); assay type: functional, biochemical
T5 sequence (P43351 whole entry): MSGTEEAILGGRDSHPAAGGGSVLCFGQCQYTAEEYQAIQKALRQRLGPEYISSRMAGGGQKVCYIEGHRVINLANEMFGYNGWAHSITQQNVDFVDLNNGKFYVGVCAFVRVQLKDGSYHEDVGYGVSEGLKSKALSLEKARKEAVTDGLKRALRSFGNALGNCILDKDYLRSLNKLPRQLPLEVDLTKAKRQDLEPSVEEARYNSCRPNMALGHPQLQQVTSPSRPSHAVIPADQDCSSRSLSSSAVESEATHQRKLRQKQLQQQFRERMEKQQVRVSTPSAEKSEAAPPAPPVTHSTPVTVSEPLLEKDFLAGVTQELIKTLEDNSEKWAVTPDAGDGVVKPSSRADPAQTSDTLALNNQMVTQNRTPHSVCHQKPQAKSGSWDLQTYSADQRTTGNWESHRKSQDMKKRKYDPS

BJ [8] = test: cells; assay type: functional, cell-based; conditions: Homo sapiens
BJ [9] = test: BJ-TERT-LT-ST fibroblast viability loss – cell-based, RAS-independent, luminescence, dose response (AID 1935); assay type: functional; conditions: Homo sapiens;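 further: BJ fibroblasts immortalized with TERT plus LT and ST oncogenes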
BJ [10] = test: BJ-TERT fibroblast viability loss – cell-based, RAS-independent, luminescence, dose response (AID 1933); assay type: functional; conditions: Homo sapiens
[11] = DRD fibroblast viability loss – cell-based, non-viral oncogenic, luminescence, dose response (AID 1934); assay type: functional; conditions: Homo sapiens
[12] = Luminescence Cell-Based Dose Retest to Confirm Inhibitors of Cancer Stem Cells. [Related pubchem assays (depositor defined):AID2717, AID2721]; assay type: functional; conditions: Homo sapiens
[13] = viability of uninfected HEp-2 cells – cell-based, HTS, cytotoxicity control for RSV inhibitor project, dose response (AID 2410); assay type: functional; conditions: human respiratory syncytial virus

Row | Structure (SMILES) | GI50 (P388) | GI50 (SN12K1) | GI50 (P388/ADR) | AC50 [7] | other results
1 | CS(=O)(=O)CS(=O)(=O)OCCCl | 17.9 µM (inactive) | 152 µM (inactive) | 27.7 µM (inactive) |  | 
2 | COC(=O)c1c(NC(=O)/C=C/C(=O)O)sc(C)c1-c1ccc(C(C)C)cc1 |  |  |  |  | EC50 (Protein RecA): 2.4 µM (active); CC50 (Vero): > 40 µM (active); AC50 [1]: 6.48 µM (active); IC50 (Genome polyprotein): 65 µM (active)
3 | CC(C)(C)c1ccc2c(c1)OP1(Oc3c(Cl)cc(Cl)c4cccnc34)(O2)Oc2ccc(C(C)(C)C)cc2O1 | 0.889 µM (active) | 6.21 µM (inactive) | 2.84 µM (inactive) |  | 
4 | CCCCn1c(SCC(=O)c2ccc(O)c(O)c2)nc2ccsc2c1=O |  |  |  |  | CC50 [2]: 100 µM (active); IC50 [3]: 49.7 µM (active); EC50 [4]: 31.7 µM (active); EC50 [5]: 12.9 µM (active); EC50 [6]: > 38 µM (not active)
5 | COc1ccc(N2CCc3c(C)nc4c(OC)cccc4c32)cc1 |  |  |  | 12.3 µM (active) | EC50 (BJ [8]): 20 µM (inconclusive); EC50 (BJ [9]): 1.26 µM (inconclusive); EC50 (BJ [10]): 3.48 µM (inconclusive); EC50 [11]: 2.68 µM (active)
6 | CCn1cc(C(=O)NN)c(=O)c2cc(F)c(N3CCN(C)CC3)cc21 |  |  |  | 15.7 µM (active) | 
7 | O=C(c1ccccc1F)N1CCN(Cc2ccccc2F)CC1 |  |  |  |  | CC50 [2]: 100 µM (active); IC50 [3]: 182 µM (active)
8 | O=C1CCCN1CCC/N=c1/cc2n(-c3ccc(Cl)cc3)c3ccccc3nc-2cc1Nc1ccc(Cl)cc1 | 3.45 µM (inactive) | 9.66 µM (inactive) | 3.53 µM (inactive) |  | 
9 | C=C1C(=O)O[C@@H]2[C@H](O)[C@@H](C)[C@@H]3C=CC(=O)[C@@]3(C)[C@@H](OC(=O)/C(C)=C/C)[C@H]12 | 0.0933 µM (active) | 0.34 µM (active) | 0.104 µM (active) |  | 
10 | CN1CCN(CC(=O)Nc2nc(-c3c[nH]c4ccccc34)cs2)CC1 |  |  |  | 11.6 µM (active) | 
11 | CCOC(=O)c1c(CNc2ccncc2)n(C)c2cc(Br)c(O)cc12 |  |  |  | 15.6 µM (active) | 
12 | O=C(C[n+]1ccc2ccccc2c1)c1ccc2ccc3ccccc3c2c1 |  |  |  | 4.04 µM (active) | 
13 | C[n+]1ccc(Nc2ccc(NC(=O)c3ccc(Nc4cc[n+](C)c5ccc([N+](=O)[O-])cc45)cc3[N+](=O)[O-])cc2)cc1 | 0.771 µM (active) | 23.9 µM (inactive) |  |  | 
14 | Cc1cccc(Nc2nc(-c3ccc(O)cc3O)cs2)n1 |  |  |  |  | CC50 (Vero): > 40 µM (active); AC50 [12]: 6.88 µM (active); CC50 [13]: 43.6 µM (active)
15 | Oc1ccc(/C=N/n2c(-c3ccco3)cs/c2=N\c2cccnc2)c(O)c1 |  |  |  |  | CC50 [2]: 100 µM (active); IC50 [3]: 43.3 µM (active)
16 | COc1cc2c(cc1O)N=C[C@@H]1CC[C@@H](O)N1C2=O.COc1cc2c(cc1O)N=C[C@@H]1CC[C@H](O)N1C2=O | 0.582 µM (active) | 0.53 µM (active) | 0.173 µM (active) |  | 
